Assay results taken from the supplement of paper PMC5908809.

Legend:
SNK-6 (IL-2 2.5 ng/mL) [1] = assay: percent inhibition of viability; higher = more inhibition; conditions: 72 h
KHYG-1 (IL-2 2.5 ng/mL) [2] = assay: as above; conditions: 72 h
[3] = tested on: normal primary NK cells, pool 3 (3 donors) (IL-2 2.5 ng/mL); assay: as above; conditions: 72 h
IMC-1 (IL-2 20 ng/mL) [4] = assay: as above; conditions: 72 h
NK-92 (IL-2 2.5 ng/mL) [5] = assay: as above; conditions: 72 h
[6] = tested on: normal primary NK cells, pool 1 (3 donors) (IL-2 2.5 ng/mL); assay: as above; conditions: 72 h
NKL (IL-2 2.5 ng/mL) [7] = assay: as above; conditions: 72 h
[8] = tested on: normal primary NK cells, pool 1 (3 donors), resting (IL-2 0 ng/mL); assay: as above; conditions: 72 h
KAI3 (IL-2 2.5 ng/mL) [9] = assay: as above; conditions: 72 h
NK-YS (IL-2 2.5 ng/mL) [10] = assay: as above; conditions: 72 h
DERL-7 (IL-2 2.5 ng/mL) [11] = assay: as above; conditions: 72 h
[12] = tested on: normal primary NK cells, pool 2 (3 donors) (IL-2 2.5 ng/mL); assay: as above; conditions: 72 h
YT (IL-2 2.5 ng/mL) [13] = assay: as above; conditions: 72 h
[14] = tested on: normal NK cells expanded with K562-aAPC; assay: as above; conditions: 72 h, IL-2 2.5 ng/mL
Method: (§1)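 Drug sensitivity and resistance testing on K562-aAPC-expanded normal NK cells: 5 concentrations (10-fold steps over a 10,000-fold range), 72 h at 37 °C, viability by CellTiter-Glo normalised to DMSO and benzethonium chloride controls; DSS from the fitted curve.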

[15] = tested on: normal NK cells expanded with K562-aAPC; assay: drug sensitivity score (DSS) (DSS units); higher = more sensitive; extreme values may be limits of the assay; conditions: 72 h; IL-2 2.5 ng/mL
Method: as §1

SNK-6 (IL-2 2.5 ng/mL) [16] = assay: as above; conditions: 72 h
KHYG-1 (IL-2 2.5 ng/mL) [17] = assay: as above; conditions: 72 h
[18] = tested on: normal primary NK cells, pool 3 (3 donors) (IL-2 2.5 ng/mL); assay: as above; conditions: 72 h
IMC-1 (IL-2 20 ng/mL) [19] = assay: as above; conditions: 72 h
NK-92 (IL-2 2.5 ng/mL) [20] = assay: as above; conditions: 72 h
[21] = tested on: normal primary NK cells, pool 1 (3 donors) (IL-2 2.5 ng/mL); assay: as above; conditions: 72 h
NKL (IL-2 2.5 ng/mL) [22] = assay: as above; conditions: 72 h
[23] = tested on: normal primary NK cells, pool 1 (3 donors), resting (IL-2 0 ng/mL); assay: as above; conditions: 72 h
KAI3 (IL-2 2.5 ng/mL) [24] = assay: as above; conditions: 72 h
NK-YS (IL-2 2.5 ng/mL) [25] = assay: as above; conditions: 72 h
DERL-7 (IL-2 2.5 ng/mL) [26] = assay: as above; conditions: 72 h
[27] = tested on: normal primary NK cells, pool 2 (3 donors) (IL-2 2.5 ng/mL); assay: as above; conditions: 72 h
YT (IL-2 2.5 ng/mL) [28] = assay: as above; conditions: 72 h

CC(C)(C)c1cc(NC(=O)Nc2ccc(-c3cn4c(n3)sc3cc(OCCN5CCOCC5)ccc34)cc2)no1 [Quizartinib] (max concentration tested 1000 nM)
percent inhibition of viability [%]
Conditions	0.1 nM	1 nM	10 nM	100 nM	1000 nM
DERL-7 (IL-2 2.5 ng/mL) [11]	4.27	4.47	0.07	4.17	33.4
IMC-1 (IL-2 20 ng/mL) [4]	-3.97	-4.91	-0.67	-2.42	-27
KAI3 (IL-2 2.5 ng/mL) [9]	0.8	-2.84	2.67	15.2	68.6
KHYG-1 (IL-2 2.5 ng/mL) [2]	-4.77	-6.69	-1.59	7.07	69.5
NK-92 (IL-2 2.5 ng/mL) [5]	4.94	6.77	3.37	9.08	32.8
NK-YS (IL-2 2.5 ng/mL) [10]	-4.56	-6.94	-2.6	3.09	45.4
NKL (IL-2 2.5 ng/mL) [7]	-4.32	-4.59	-3.22	6.3	40.2
SNK-6 (IL-2 2.5 ng/mL) [1]	19.5	-15.2	-9.07	-27.8	31.3
YT (IL-2 2.5 ng/mL) [13]	-3.18	-4.77	-2.32	8.06	28.5
[3]	-1.63	14.8	1.27	-1.92	11.7
[6]	-1.34	14.2	4.45	6.54	7.43
[8]	6.94	18.5	11.5	15.2	11.1
[12]	-4.07	3.45	0.79	8.48	5.08
[14]	-5.93	-6.07	-5.11	1.78	12

Conditions	drug sensitivity score
DERL-7 (IL-2 2.5 ng/mL) [26]	2.22
IMC-1 (IL-2 20 ng/mL) [19]	0
KAI3 (IL-2 2.5 ng/mL) [24]	6.21
KHYG-1 (IL-2 2.5 ng/mL) [17]	4.98
NK-92 (IL-2 2.5 ng/mL) [20]	2.69
NK-YS (IL-2 2.5 ng/mL) [25]	2.8
NKL (IL-2 2.5 ng/mL) [22]	3.06
SNK-6 (IL-2 2.5 ng/mL) [16]	0.72
YT (IL-2 2.5 ng/mL) [28]	2.36
[15]	0.13
[18]	0.01
[21]	0
[23]	0
[27]	0

CNC(=O)c1ccc(N2C(=S)N(c3ccc(C#N)c(C(F)(F)F)c3)C(=O)C23CCC3)cc1F [RD162] (max concentration tested 10000 nM)
percent inhibition of viability [%]
Conditions	1 nM	10 nM	100 nM	1000 nM	10000 nM
DERL-7 (IL-2 2.5 ng/mL) [11]	2.54	-3.32	-8.09	-8.58	-5.45
IMC-1 (IL-2 20 ng/mL) [4]	-5.69	-2.87	-1.68	2.9	17.6
KAI3 (IL-2 2.5 ng/mL) [9]	-2.44	-0.44	1.83	0.32	18.6
KHYG-1 (IL-2 2.5 ng/mL) [2]	-6.85	-6.64	-5.8	2.74	10.4
NK-92 (IL-2 2.5 ng/mL) [5]	-11.3	5.25	-15.2	-0.07	33.8
NK-YS (IL-2 2.5 ng/mL) [10]	-12.1	-6.94	-9.33	1.8	16.9
NKL (IL-2 2.5 ng/mL) [7]	-11.3	-5.72	-0.58	7.33	23.9
SNK-6 (IL-2 2.5 ng/mL) [1]	-1.99	-21.8	2.57	-8.56	1.37
YT (IL-2 2.5 ng/mL) [13]	-8.11	-4.09	-6.39	3.85	24.7
[3]	-4.05	-1.08	1.71	-2.99	3.64
[6]	-2.22	4.97	8.69	3.69	20.8
[8]	1.38	18.7	13.6	12.9	40.5
[12]	-7.24	-1.28	0.84	3.39	11.3
[14]	-8.24	-9.67	-4.97	7.5	1.43

Conditions	drug sensitivity score
DERL-7 (IL-2 2.5 ng/mL) [26]	0
IMC-1 (IL-2 20 ng/mL) [19]	0.76
KAI3 (IL-2 2.5 ng/mL) [24]	0.52
KHYG-1 (IL-2 2.5 ng/mL) [17]	0.01
NK-92 (IL-2 2.5 ng/mL) [20]	1.56
NK-YS (IL-2 2.5 ng/mL) [25]	0.56
NKL (IL-2 2.5 ng/mL) [22]	1.84
SNK-6 (IL-2 2.5 ng/mL) [16]	0
YT (IL-2 2.5 ng/mL) [28]	1.51
[15]	0
[18]	0
[21]	0.72
[23]	5.08
[27]	0.09
